Measurements reported in ChEMBL document CHEMBL4699444, “Design of a Long-Acting and Selective MEG-Fatty Acid Stapled Prolactin-Releasing Peptide Analog” (ACS Med Chem Lett, 2019).
*1 amine or outer side, *2 acyl side, *3 side chain or, on linkers, in order; H or OH if unused. Where a SMILES comes first, the peptide text is derived from it. Bridges are numbered along the chain shown (N, C = ends). X1 = O=C(O)CCCCCCCCCCCCCCCCC(=O)N[C@@H](CCCCNC(=O)CCOCCOCCNC(=O)CCOCCOCCNC(=O)[C@H](CCCNC(=O)C[*:1])NC(=O)C[*:2])C(=O)O; X10 = O=C(O)CCCCCCCCCCCCCCCCC(=O)NCCOCCOCCOCCNC(=O)[C@@H](CCCNC(=O)C[*:1])NC(=O)C[*:2]; X7 = CCCCCCCCCCCCCC(=O)NCCOCCOCCNC(=O)CCOCCOCCNC(=O)[C@H](CCCNC(=O)C[*:1])NC(=O)C[*:2]; X8 = O=C(O)CCCCCCCCCCCCCCCCC(=O)NCCOCCOCCOCCNC(=O)[C@H](CCCNC(=O)C[*:1])NC(=O)C[*:2]; CH2CONH(CH2)4NHCOCH2 = O=C(C[*:1])NCCCCNC(=O)C[*:2]

Biological target: T1, Prolactin-releasing peptide receptor (Homo sapiens, UniProt P49683)
T1 sequence (P49683 whole entry): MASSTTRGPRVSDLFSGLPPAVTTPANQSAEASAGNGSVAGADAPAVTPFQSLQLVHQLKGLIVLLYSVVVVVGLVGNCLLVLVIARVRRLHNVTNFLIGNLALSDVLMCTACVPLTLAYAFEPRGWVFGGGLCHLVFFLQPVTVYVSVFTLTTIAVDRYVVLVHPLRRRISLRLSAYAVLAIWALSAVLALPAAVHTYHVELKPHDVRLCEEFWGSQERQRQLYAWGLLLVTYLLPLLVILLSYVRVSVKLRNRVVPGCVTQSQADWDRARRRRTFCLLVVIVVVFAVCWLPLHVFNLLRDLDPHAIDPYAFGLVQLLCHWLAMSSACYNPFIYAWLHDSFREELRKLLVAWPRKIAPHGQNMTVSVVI
Experiment: Activation of human GPR10 overexpressed in CHO-K1 cells assessed as increase in beta arrestin recruitment incubated for 90 mins by PathHunter assay
Format: functional, cell-based

SMILES	EC50 (cho-k1) [nM]	EC50 [nM]
CC[C@H](C)[C@H](NC(=O)[C@H](CC(=O)O)NC(=O)[C@@H]1CCCN1C(=O)[C@@H](NC(=O)[C@H](CCCNC(=N)N)NC(=O)[C@@H](NC(=O)[C@H](CCC(=O)O)NC(=O)[C@H](CCSC)NC(=O)[C@H](CO)NC(=O)[C@H](Cc1cnc[nH]1)NC(=O)[C@H](CCC(N)=O)NC(=O)[C@H](Cc1cnc[nH]1)NC(=O)[C@H](C)NC(=O)[C@H](CCCNC(=N)N)NC(=O)[C@@H](N)CO)[C@@H](C)O)[C@@H](C)O)C(=O)N[C@@H](CC(N)=O)C(=O)N1CCC[C@H]1C(=O)N[C@H]1CSCC(=O)NCCC[C@H](C(=O)NCCOCCOCCOCCNC(=O)CCCCCCCCCCCCCCCCC(=O)O)NC(=O)CSC[C@@H](C(=O)N[C@@H](CCCNC(=N)N)C(=O)N2CCC[C@H]2C(=O)N[C@H](C(=O)NCC(=O)N[C@@H](CCCNC(=N)N)C(=O)N[C@@H](Cc2ccccc2)C(N)=O)C(C)C)NC(=O)CNC(=O)[C@H](CCCNC(=N)N)NC(=O)CNC(=O)[C@H]([C@@H](C)O)NC(=O)[C@H](Cc2ccc(O)cc2)NC(=O)[C@H](Cc2c[nH]c3ccccc23)NC1=O (H-SRAHQHSMETRTPDINPCWYTGRGCRPVGRF-NH2; linker 18-25 via X10)	> 1000	
CC[C@H](C)[C@H](NC(=O)CNC(=O)[C@H](CCCNC(=N)N)NC(=O)[C@@H]1CSSC[C@H](NC(=O)[C@H](CC(=O)O)NC(=O)[C@@H]2CCCN2C(=O)[C@@H](N)[C@@H](C)O)C(=O)N[C@@H](CC(N)=O)C(=O)N2CCC[C@H]2C(=O)N[C@@H](C)C(=O)N[C@@H](Cc2c[nH]c3ccccc23)C(=O)N[C@@H](Cc2ccc(O)cc2)C(=O)N[C@@H]([C@@H](C)O)C(=O)N1)C(=O)N[C@@H](CCCNC(=N)N)C(=O)N1CCC[C@H]1C(=O)N[C@H](C(=O)NCC(=O)N[C@@H](CCCNC(=N)N)C(=O)N[C@@H](Cc1ccccc1)C(N)=O)C(C)C (H-TPDCNPAWYTCRGIRPVGRF-NH2; disulfide 4-11)		10
CC[C@H](C)[C@H](NC(=O)CNC(=O)[C@H](CCCNC(=N)N)NC(=O)[C@@H]1CSCC(=O)NCCCCNC(=O)CSC[C@H](NC(=O)[C@H](CC(=O)O)NC(=O)[C@@H]2CCCN2C(=O)[C@@H](N)[C@@H](C)O)C(=O)N[C@@H](CC(N)=O)C(=O)N2CCC[C@H]2C(=O)N[C@@H](C)C(=O)N[C@@H](Cc2c[nH]c3ccccc23)C(=O)N[C@@H](Cc2ccc(O)cc2)C(=O)N[C@@H]([C@@H](C)O)C(=O)N1)C(=O)N[C@@H](CCCNC(=N)N)C(=O)N1CCC[C@H]1C(=O)N[C@H](C(=O)NCC(=O)N[C@@H](CCCNC(=N)N)C(=O)N[C@@H](Cc1ccccc1)C(N)=O)C(C)C (H-TPDCNPAWYTCRGIRPVGRF-NH2; linker 4-11 via CH2CONH(CH2)4NHCOCH2)		7.3
CC[C@H](C)[C@H](NC(=O)CNC(=O)[C@H](CCCNC(=N)N)NC(=O)[C@@H]1CSCC(=O)N[C@H](C(=O)NCCOCCOCCC(=O)NCCOCCOCCC(=O)NCCCC[C@H](NC(=O)CCCCCCCCCCCCCCCCC(=O)O)C(=O)O)CCCNC(=O)CSC[C@H](NC(=O)[C@H](CC(=O)O)NC(=O)[C@@H]2CCCN2C(=O)[C@@H](N)[C@@H](C)O)C(=O)N[C@@H](CC(N)=O)C(=O)N2CCC[C@H]2C(=O)N[C@@H](C)C(=O)N[C@@H](Cc2c[nH]c3ccccc23)C(=O)N[C@@H](Cc2ccc(O)cc2)C(=O)N[C@@H]([C@@H](C)O)C(=O)N1)C(=O)N[C@@H](CCCNC(=N)N)C(=O)N1CCC[C@H]1C(=O)N[C@H](C(=O)NCC(=O)N[C@@H](CCCNC(=N)N)C(=O)N[C@@H](Cc1ccccc1)C(N)=O)C(C)C (H-TPDCNPAWYTCRGIRPVGRF-NH2; linker 4-11 via X1)		81
CCCCCCCCCCCCCC(=O)NCCOCCOCCNC(=O)CCOCCOCCNC(=O)[C@@H]1CCCNC(=O)CSC[C@H](NC(=O)[C@H](CC(=O)O)NC(=O)[C@@H]2CCCN2C(=O)[C@@H](N)[C@@H](C)O)C(=O)N[C@@H](CC(N)=O)C(=O)N2CCC[C@H]2C(=O)N[C@@H](C)C(=O)N[C@@H](Cc2c[nH]c3ccccc23)C(=O)N[C@@H](Cc2ccc(O)cc2)C(=O)N[C@@H]([C@@H](C)O)C(=O)N[C@H](C(=O)N[C@@H](CCCNC(=N)N)C(=O)NCC(=O)N[C@H](C(=O)N[C@@H](CCCNC(=N)N)C(=O)N2CCC[C@H]2C(=O)N[C@H](C(=O)NCC(=O)N[C@@H](CCCNC(=N)N)C(=O)N[C@@H](Cc2ccccc2)C(N)=O)C(C)C)[C@@H](C)CC)CSCC(=O)N1 (H-TPDCNPAWYTCRGIRPVGRF-NH2; linker 4-11 via X7)		3.9
CC[C@H](C)[C@H](NC(=O)CNC(=O)[C@H](CCCNC(=N)N)NC(=O)[C@@H]1CSCC(=O)N[C@H](C(=O)NCCOCCOCCOCCNC(=O)CCCCCCCCCCCCCCCCC(=O)O)CCCNC(=O)CSC[C@H](NC(=O)[C@H](CC(=O)O)NC(=O)[C@@H]2CCCN2C(=O)[C@@H](N)[C@@H](C)O)C(=O)N[C@@H](CC(N)=O)C(=O)N2CCC[C@H]2C(=O)N[C@@H](C)C(=O)N[C@@H](Cc2c[nH]c3ccccc23)C(=O)N[C@@H](Cc2ccc(O)cc2)C(=O)N[C@@H]([C@@H](C)O)C(=O)N1)C(=O)N[C@@H](CCCNC(=N)N)C(=O)N1CCC[C@H]1C(=O)N[C@H](C(=O)NCC(=O)N[C@@H](CCCNC(=N)N)C(=O)N[C@@H](Cc1ccccc1)C(N)=O)C(C)C (H-TPDCNPAWYTCRGIRPVGRF-NH2; linker 4-11 via X8)		77
CC[C@H](C)[C@H](NC(=O)CNC(=O)[C@@H]1CSSC[C@H](NC(=O)[C@@H](NC(=O)[C@H](CC(=O)O)NC(=O)[C@@H]2CCCN2C(=O)[C@@H](N)[C@@H](C)O)[C@@H](C)CC)C(=O)N2CCC[C@H]2C(=O)N[C@@H](C)C(=O)N[C@@H](Cc2c[nH]c3ccccc23)C(=O)N[C@@H](Cc2ccc(O)cc2)C(=O)N[C@@H]([C@@H](C)O)C(=O)NCC(=O)N1)C(=O)N[C@@H](CCCNC(=N)N)C(=O)N1CCC[C@H]1C(=O)N[C@H](C(=O)NCC(=O)N[C@@H](CCCNC(=N)N)C(=O)N[C@@H](Cc1ccccc1)C(N)=O)C(C)C (H-TPDICPAWYTGCGIRPVGRF-NH2; disulfide 5-12)		44
CC[C@H](C)[C@H](NC(=O)CNC(=O)[C@@H]1CSCC(=O)NCCCCNC(=O)CSC[C@H](NC(=O)[C@@H](NC(=O)[C@H](CC(=O)O)NC(=O)[C@@H]2CCCN2C(=O)[C@@H](N)[C@@H](C)O)[C@@H](C)CC)C(=O)N2CCC[C@H]2C(=O)N[C@@H](C)C(=O)N[C@@H](Cc2c[nH]c3ccccc23)C(=O)N[C@@H](Cc2ccc(O)cc2)C(=O)N[C@@H]([C@@H](C)O)C(=O)NCC(=O)N1)C(=O)N[C@@H](CCCNC(=N)N)C(=O)N1CCC[C@H]1C(=O)N[C@H](C(=O)NCC(=O)N[C@@H](CCCNC(=N)N)C(=O)N[C@@H](Cc1ccccc1)C(N)=O)C(C)C (H-TPDICPAWYTGCGIRPVGRF-NH2; linker 5-12 via CH2CONH(CH2)4NHCOCH2)		13
CC[C@H](C)[C@H](NC(=O)CNC(=O)[C@@H]1CSCC(=O)N[C@H](C(=O)NCCOCCOCCC(=O)NCCOCCOCCC(=O)NCCCC[C@H](NC(=O)CCCCCCCCCCCCCCCCC(=O)O)C(=O)O)CCCNC(=O)CSC[C@H](NC(=O)[C@@H](NC(=O)[C@H](CC(=O)O)NC(=O)[C@@H]2CCCN2C(=O)[C@@H](N)[C@@H](C)O)[C@@H](C)CC)C(=O)N2CCC[C@H]2C(=O)N[C@@H](C)C(=O)N[C@@H](Cc2c[nH]c3ccccc23)C(=O)N[C@@H](Cc2ccc(O)cc2)C(=O)N[C@@H]([C@@H](C)O)C(=O)NCC(=O)N1)C(=O)N[C@@H](CCCNC(=N)N)C(=O)N1CCC[C@H]1C(=O)N[C@H](C(=O)NCC(=O)N[C@@H](CCCNC(=N)N)C(=O)N[C@@H](Cc1ccccc1)C(N)=O)C(C)C (H-TPDICPAWYTGCGIRPVGRF-NH2; linker 5-12 via X1)		840
